Experimental data taken from ChEMBL document CHEMBL1155069, “Beta-ketophosphonates as beta-lactamase inhibitors: Intramolecular cooperativity between the hydrophobic subsites of a class D beta-lactamase” (Bioorg Med Chem, 2008).

Experiments:
[1] = Inhibition of Escherichia coli OXA1 class D beta-lactamase by spectrophotometry
[2] = Inhibition of Enterobacter cloacae P99 class C beta-lactamase by spectrophotometry
[3] = Inhibition of Escherichia coli TEM2 class A beta-lactamase by spectrophotometry
[4] = Inhibition of Escherichia coli OXA10 class D beta-lactamase by spectrophotometry

Row | SMILES | Ki [2] | Ki [1] | Ki [3] | Ki [4]
1 | O=C(CP(=O)(O)Oc1ccccc1)c1ccc(-c2ccccc2)cc1 | 100 µM | 140 µM | 920 µM | –
2 | O=C(CP(=O)(O)OCc1ccccc1)c1ccc2[nH]c(=O)oc2c1 | 70 µM | 270 µM | 1500 µM | –
3 | Cc1onc(-c2ccccc2Cl)c1C(=O)CP(=O)(O)OCc1ccccc1 | > 1000 µM | 430 µM | > 1000 µM | –
4 | O=C(CP(=O)(O)OCc1ccc(-c2ccccc2)cc1)c1ccccc1 | – | 200 µM | – | > 1000 µM
5 | O=P(O)(CC(O)c1ccccc1)OCc1ccccc1 (racemic) | 1080 µM | 440 µM | > 1000 µM | –
6 | O=C(CP(=O)(O)Oc1ccccc1)c1c(F)c(F)c(F)c(F)c1F [SODIUM PHENYL PENTAFLUOROPHENACYLPHOSPHONATE] | 350 µM | 380 µM | 475 µM | > 1000 µM
7 | O=C(CP(=O)(O)Oc1ccccc1)c1ccccc1 [SODIUM PHENYL PHENACYLPHOSPHONATE] | 200 µM | 1050 µM | – | > 1000 µM

Second part, led by results:

Row | Ki [2] | SMILES | Ki [1] | Ki [3] | Ki [4]
8 | 24 µM | O=C(CP(=O)(O)OCc1ccccc1)c1nc2ccccc2s1 | 170 µM | 3600 µM | –
9 | 74 µM | O=C(CP(=O)(O)OCc1ccc(-c2ccccc2)cc1)c1ccc(-c2ccccc2)cc1 | 6 µM | – | 200 µM
10 | 190 µM | O=C(CP(=O)(O)OCc1ccccc1)c1ccc(-c2ccccc2)cc1 | 230 µM | > 1000 µM | > 1000 µM
11 | 260 µM | O=P(O)(CC(O)c1ccc(-c2ccccc2)cc1)OCc1ccccc1 (racemic) | 300 µM | > 1000 µM | –
12 | 670 µM | O=C(CP(=O)(O)OCc1ccccc1)c1ccccc1 [SODIUM BENZYL PHENACYLPHOSPHONATE] | 640 µM | 150 µM | > 1000 µM
